Measured values as given in patent publication US4659825A, “Isomeric O-phosphonylmethyl derivatives of enantiomeric and racemic 9-(2,3-dihydroxypropyl)adenine” (Ceskoslovenska akademie, priority 1983, dated 1987).

Tested on: Pyrrhocoris apterus L.
Experiment: Ovicidal activity (chemosterilizing): inhibition of egg hatching in the first and second egg batch after oral administration to adults of both sexes
Type: in vivo
Conditions: drinking water
Experimental: The test animals were freshly emerged adults of Pyrrhocoris apterus L. and the tested compounds were administered as solutions in drinking water. The concentration 1 mg.ml^-1 corresponded to the dose of 1 mg/g/24 h. Each test was performed on a group of 10 males and 10 females and evaluated according to toxicity and hatchability of the eggs of the first and the second egg batches.

SMILES | Inhibition of egg hatching in the first and second egg batch (% inhibition, related to control eggs) (0.01 mg.ml^-1 of water) [%] | Inhibition of egg hatching in the first and second egg batch (% inhibition, related to control eggs) (0.05 mg.ml^-1 of water) [%] | Inhibition of egg hatching in the first and second egg batch (% inhibition, related to control eggs) (0.1 mg.ml^-1 of water) [%] | Inhibition of egg hatching in the first and second egg batch (% inhibition, related to control eggs) (1.0 mg.ml^-1 of water (1 mg.ml^-1 corresponded to the dose of 1 mg/g/24 h)) [%]
Nc1ncnc2c1ncn2CC(O)CO (racemic) [compound 3, (RS)-9-(2,3-dihydroxypropyl)adenine] | 0 | 10 | 37 | 100
Nc1ncnc2c1ncn2CC(CO)OCP(=O)(O)O (racemic) [2'-isomer] | – | – | 27 | –
Nc1ncnc2c1ncn2CC(O)COCP(=O)(O)O (racemic) [3'-isomer] | – | – | 61 | –
